Source: patent publication US20050245399A1, “Pyrazole derivatives as herbicidal compositions containing them” (ISHIHARA SANGYO KAISHA, LTD., priority 2004, published 2005)

Columns and labels:
Type in all cases: in vivo
[1] = system: redroot pigweed (Amaranthus retroflexus L.): AMARE; experiment: Test Example 1 pre-emergence herbicidal activity, AMARE; details: Rate 63 g a.i./ha, visually observed 20th to 23rd day after application
Outline: (§1)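 Percent growth control, rated visually 20–23 d after a pre-emergence spray applied 1 d post-sowing; compound formulated as WP or EC in 500 L/ha water at a predetermined a.i. amount.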

[2] = system: crabgrass (Digitaria sanguinalis L.), DIGSA; experiment: Test Example 2 post-emergence (foliage treatment) herbicidal activity, DIGSA
Outline: (§2)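 Each species was evaluated for growth suppression by eye, 0% matching untreated and 100% meaning death, some 20 to 23 days after a single post-emergence foliar treatment applied in 500 L/ha of water carrying 0.1% (v/v) agricultural spreader.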

[3] = system: barnyardgrass (Echinochloa crus-galli L.), ECHCG; experiment: Test Example 2 post-emergence (foliage treatment) herbicidal activity, ECHCG
Outline: as §2

[4] = system: prickly sida (Sida spinosa L.): SEDSP; experiment: Test Example 1 pre-emergence herbicidal activity, SIDSP; details: Rate 63 g a.i./ha, visually observed 20th to 23rd day after application
Outline: as §1

[5] = system: redroot pigweed (Amaranthus retroflexus L.), AMARE; experiment: Test Example 2 post-emergence (foliage treatment) herbicidal activity, AMARE
Outline: as §2

[6] = system: crabgrass (Digitaria sanguinalis L.): DIGSA; experiment: Test Example 1 pre-emergence herbicidal activity, DIGSA; details: Rate 63 g a.i./ha, visually observed 20th to 23rd day after application
Outline: as §1

[7] = system: corn (Zea mays L.): ZEAMX; experiment: Test Example 1 pre-emergence herbicidal activity, ZEAMX; details: Rate 63 g a.i./ha, visually observed 20th to 23rd day after application
Outline: as §1

[8] = system: wheat (Triticum aestivum L.), TRZAX; experiment: Test Example 2 post-emergence (foliage treatment) herbicidal activity, TRZAX
Outline: (§3)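 A small sprayer delivered the diluted WP or EC formulation (500 L/ha water, 0.1% v/v spreader) over emerged seedlings in upland soil pots. Damage relative to untreated plants was graded visually from 0 to 100% three weeks or so later (days 20-23).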

[9] = system: soybean (Glycine max Merr.): GLXMA; experiment: Test Example 1 pre-emergence herbicidal activity, GLXMA; details: Rate 63 g a.i./ha, visually observed 20th to 23rd day after application
Outline: as §1

[10] = system: velvetleaf (Abutilon theophrasti), ABUTH; experiment: Test Example 2 post-emergence (foliage treatment) herbicidal activity, ABUTH
Outline: as §3

[11] = system: japanese bulrush (Scirpus juncoides: SCPJO); experiment: Test Example 3 water application herbicidal activity (paddy), SCPJO; details: 63 g a.i./ha, water application under submerged condition at 0.5 leaf stage, visually observed 14th day after application; 0 = untreated control, 100 = complete kill
Outline: (§4)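 Submerged application in flooded paddy soil (3–4 cm water); weeds treated at 0.5-leaf stage, transplanted rice 4 d after transplanting. Scored visually as % growth control: weeds at 14 d, rice at 21 d.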

[12] = system: barnyardgrass (Echinochiloa oryzicola: ECHOR); experiment: Test Example 3 water application herbicidal activity (paddy), ECHOR; details: 63 g a.i./ha, water application under submerged condition at 0.5 leaf stage, visually observed 14th day after application; 0 = untreated control, 100 = complete kill
Outline: as §4

[13] = system: japanese ribbon wapato (Sagittaria pygmaea: SA GPY); experiment: Test Example 3 water application herbicidal activity (paddy), SAGPY; details: 63 g a.i./ha, water application under submerged condition, tubers planted, visually observed 14th day after application; 0 = untreated control, 100 = complete kill
Outline: as §4

[14] = system: soybean (Glycine max Merr.), GLXMA; experiment: Test Example 2 post-emergence (foliage treatment) herbicidal activity, GLXMA
Outline: as §3

[15] = system: barnyardgrass (Echinochloa crus-galli L.): ECHCG; experiment: Test Example 1 pre-emergence herbicidal activity, ECHCG; details: Rate 63 g a.i./ha, visually observed 20th to 23rd day after application
Outline: as §1

[16] = system: rice (Oryza sativa L.), ORYSA; experiment: Test Example 2 post-emergence (foliage treatment) herbicidal activity, ORYSA
Outline: as §2

[17] = system: green foxtail (Setaria viridis L.), SETVI; experiment: Test Example 2 post-emergence (foliage treatment) herbicidal activity, SETVI
Outline: as §3

[18] = system: rice (Oryza sativa L.): ORYSA; experiment: Test Example 1 pre-emergence herbicidal activity, ORYSA; details: Rate 63 g a.i./ha, visually observed 20th to 23rd day after application
Outline: as §1

[19] = system: velvetleaf (Abutilon theophrasti): ABUTH; experiment: Test Example 1 pre-emergence herbicidal activity, ABUTH; details: Rate 63 g a.i./ha, visually observed 20th to 23rd day after application
Outline: as §1

[20] = system: wheat (Triticum aestivum L.): TRZAX; experiment: Test Example 1 pre-emergence herbicidal activity, TRZAX; details: Rate 63 g a.i./ha, visually observed 20th to 23rd day after application
Outline: as §1

[21] = system: green foxtail (Setaria viridis L.): SETVI; experiment: Test Example 1 pre-emergence herbicidal activity, SETVI; details: Rate 63 g a.i./ha, visually observed 20th to 23rd day after application
Outline: as §1

[22] = system: prickly sida (Sida spinosa L.), SIDSP; experiment: Test Example 2 post-emergence (foliage treatment) herbicidal activity, SIDSP
Outline: as §3

[23] = system: corn (Zea mays L.), ZEAMX; experiment: Test Example 2 post-emergence (foliage treatment) herbicidal activity, ZEAMX
Outline: as §3

[24] = system: rice (Oryza sativa L.: ORYSA); experiment: Test Example 3 water application herbicidal activity (paddy), transplanted rice ORYSA; details: 63 g a.i./ha, water application 4th day after transplantation of 2 leaf stage rice, visually observed 21st day after application; 0 = untreated control, 100 = complete kill
Outline: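 Rice at 2-leaf stage is transplanted into flooded puddled soil and treated by water application 4 days later, at a predetermined active-ingredient dose. Crop injury is rated visually as growth control (0–100%) 21 days after treatment.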

Row | SMILES | Pre-emergence Herbicidal Activity AMARE (growth controlling degree) [1] [%] | growth controlling degree, DIGSP ([2]; 63 g a.i./ha) [%] | growth controlling degree, ECHCO ([3]; 63 g a.i./ha) [%] | Pre-emergence Herbicidal Activity SIDSP (growth controlling degree) [4] [%] | growth controlling degree, AMARE ([5]; 63 g a.i./ha) [%] | Pre-emergence Herbicidal Activity DIGSP (growth controlling degree) [6] [%] | Pre-emergence Herbicidal Activity ZEAMX (growth controlling degree) [7] [%] | growth controlling degree, TRZAX ([8]; 63 g a.i./ha) [%] | Pre-emergence Herbicidal Activity GLXMA (growth controlling degree) [9] [%] | growth controlling degree, ABUTH ([10]; 63 g a.i./ha) [%] | growth controlling degrees (%) SCPJO [11] [%] | growth controlling degrees (%) ECHOR [12] [%] | growth controlling degrees (%) SAGPY [13] [%] | growth controlling degree, GLXMA ([14]; 63 g a.i./ha) [%] | Pre-emergence Herbicidal Activity ECHCG (growth controlling degree) [15] [%] | Pre-emergence Herbicidal Activity ORYSA (growth controlling degree) [18] [%] | Pre-emergence Herbicidal Activity ABUTH (growth controlling degree) [19] [%] | Pre-emergence Herbicidal Activity TRZAX (growth controlling degree) [20] [%] | Pre-emergence Herbicidal Activity SETVI (growth controlling degree) [21] [%] | growth controlling degrees (%) ORYSA [24] [%] | other results
1 | COc1c(Cl)cc(F)c(-c2nn(C)c(OC(F)F)c2Cl)c1NC(=O)c1ccccc1C(F)(F)F [Compound 1-25] | 100 | 100 | 98 | 100 | 100 | 98 | 0 | 40 | 0 | 100 | 95 | 98 | 100 | 98 | 60 | 40 | 100 | 0 | 95 | 60 | growth controlling degree, ORYSA ([16]; 63 g a.i./ha): 90%; growth controlling degree, SETVI ([17]; 63 g a.i./ha): 100%; growth controlling degree, SIDSP ([22]; 63 g a.i./ha): 100%; growth controlling degree, ZEAMX ([23]; 63 g a.i./ha): 90%
2 | COc1c(Cl)cc(F)c(-c2nn(C)c(OC(F)F)c2Cl)c1N [Compound 1-90, 3-chloro-6-[4-chloro-5-(difluoromethoxy)-1-methyl-1H-pyrazol-3-yl]-5-fluoro-2-methoxybenzenamine] | 100 | – | – | 98 | – | 100 | 30 | – | 40 | – | 98 | 100 | 98 | – | 98 | 60 | 100 | 50 | 100 | 50 | growth controlling degree, DIGSP ([2]; 31 g a.i./ha): 100%; growth controlling degree, ECHCO ([3]; 31 g a.i./ha): 100%; growth controlling degree, AMARE ([5]; 31 g a.i./ha): 100%; growth controlling degree, TRZAX ([8]; 31 g a.i./ha): 95%; growth controlling degree, ABUTH ([10]; 31 g a.i./ha): 100%; growth controlling degree, GLXMA ([14]; 31 g a.i./ha): 98%; growth controlling degree, ORYSA ([16]; 31 g a.i./ha): 98%; growth controlling degree, SETVI ([17]; 31 g a.i./ha): 100%; growth controlling degree, SIDSP ([22]; 31 g a.i./ha): 100%; growth controlling degree, ZEAMX ([23]; 31 g a.i./ha): 98%
3 | COc1c(Cl)cc(F)c(-c2nn(C)c(OC(F)F)c2Cl)c1NC(=O)C(C)Oc1ccccc1 (stereo not drawn) [Compound 1-33] | 95 | 70 | 80 | 50 | 100 | 40 | 0 | 30 | 0 | 100 | 40 | 100 | 98 | 60 | 30 | 10 | 40 | 10 | 50 | 35 | growth controlling degree, ORYSA ([16]; 63 g a.i./ha): 50%; growth controlling degree, SETVI ([17]; 63 g a.i./ha): 98%; growth controlling degree, SIDSP ([22]; 63 g a.i./ha): 100%; growth controlling degree, ZEAMX ([23]; 63 g a.i./ha): 60%
4 | COc1ccc(C(=O)Nc2c(OC)c(Cl)cc(F)c2-c2nn(C)c(OC(F)F)c2Cl)cc1 [Compound 1-29] | 100 | 100 | 100 | 100 | 100 | 100 | 20 | 50 | 20 | 95 | 50 | 100 | 60 | 100 | 80 | 40 | 100 | 10 | 100 | 50 | growth controlling degree, ORYSA ([16]; 63 g a.i./ha): 80%; growth controlling degree, SETVI ([17]; 63 g a.i./ha): 100%; growth controlling degree, SIDSP ([22]; 63 g a.i./ha): 100%; growth controlling degree, ZEAMX ([23]; 63 g a.i./ha): 60%
5 | COc1c(Cl)cc(F)c(-c2nn(C)c(OC(F)F)c2Cl)c1NC(=O)c1cccc(Br)c1 [Compound 1-27] | 100 | 100 | 100 | 80 | 100 | 100 | 0 | 30 | 20 | 100 | 70 | 100 | 98 | 70 | 30 | 20 | 70 | 0 | 80 | 50 | growth controlling degree, ORYSA ([16]; 63 g a.i./ha): 80%; growth controlling degree, SETVI ([17]; 63 g a.i./ha): 100%; growth controlling degree, SIDSP ([22]; 63 g a.i./ha): 70%; growth controlling degree, ZEAMX ([23]; 63 g a.i./ha): 60%
